ChEMBL document CHEMBL6121066, “Structure-Activity Relationship Studies of DNA Methyltransferase 1 Monovalent Degraders” (J Med Chem, 2025)
Calls of active or inactive are those of the source. The calls are words filed in the database; no cut-off is given here.

What was measured:
HCT-116 [1] = assay: Induction of molecular glue effect mediated DNMT1 degradation in human HCT-116 cells assessed as reduction in DNMT1 protein level at 100 nM preincubated with heclin for 2 hrs followed by compound addition and measured after 24 hrs by Western blot analysis; type: cell-based
MDA-MB-468 [2] = assay: Antiproliferative activity against human MDA-MB-468 cells assessed as inhibition of cell growth upto 10 uM incubated for 7 days by CCK8 assay relative to control; type: functional; conditions: time 7 day, up to 10 µM
MDA-MB-468 [3] = assay: Effect on DNMT1 mRNA level in human MDA-MB-468 cells at 500 nM incubated for 24 hrs by RT-qPCR analysis; type: functional, cell-based
[4] = Induction of molecular glue effect mediated DNMT1 degradation in human NCI-H1299 cells assessed as reduction in DNMT1 protein level incubated for 24 hrs by Western blot analysis; type: cell-based; conditions: NCI-H1299, 24 h
HCT-116 [5] = assay: Induction of molecular glue effect mediated DNMT3B degradation in human HCT-116 cells assessed as reduction in DNMT3B protein level at 500 nM incubated for 24 hrs by Western blot analysis; type: cell-based
HCT-116 [6] = assay: Induction of molecular glue effect mediated DNMT1 degradation in human HCT-116 cells transfected with UHRF1 siRNA assessed as reduction in DNMT1 protein level at 100 nM measured after 24 hrs by Western blot analysis; type: cell-based
NCI-H1299 [7] = assay: Induction of molecular glue effect mediated DNMT1 degradation in human NCI-H1299 cells assessed as reduction in DNMT1 protein level at 100 nM preincubated with MG132 for 2 hrs followed by compound addition and measured after 24 hrs by Western blot analysis; type: cell-based
[8] = Induction of molecular glue effect mediated DNMT1 degradation in human MDA-MB-468 cells assessed as reduction in DNMT1 protein level incubated for 24 hrs by Western blot analysis; type: cell-based; conditions: MDA-MB-468, 24 h
NCI-H1299 [9] = assay: Effect on DNMT1 mRNA level in human NCI-H1299 cells at 500 nM incubated for 24 hrs by RT-qPCR analysis; type: functional, cell-based
[10] = molecular target: T1, Histone-lysine N-methyltransferase NSD2 (Homo sapiens) (UniProt O96028); assay: Inhibition of human NSD2 using nucleosomes and SAM as substrate at 1 uM by radioisotope-based MT HotSpot assay relative to control
T1 sequence (whole entry): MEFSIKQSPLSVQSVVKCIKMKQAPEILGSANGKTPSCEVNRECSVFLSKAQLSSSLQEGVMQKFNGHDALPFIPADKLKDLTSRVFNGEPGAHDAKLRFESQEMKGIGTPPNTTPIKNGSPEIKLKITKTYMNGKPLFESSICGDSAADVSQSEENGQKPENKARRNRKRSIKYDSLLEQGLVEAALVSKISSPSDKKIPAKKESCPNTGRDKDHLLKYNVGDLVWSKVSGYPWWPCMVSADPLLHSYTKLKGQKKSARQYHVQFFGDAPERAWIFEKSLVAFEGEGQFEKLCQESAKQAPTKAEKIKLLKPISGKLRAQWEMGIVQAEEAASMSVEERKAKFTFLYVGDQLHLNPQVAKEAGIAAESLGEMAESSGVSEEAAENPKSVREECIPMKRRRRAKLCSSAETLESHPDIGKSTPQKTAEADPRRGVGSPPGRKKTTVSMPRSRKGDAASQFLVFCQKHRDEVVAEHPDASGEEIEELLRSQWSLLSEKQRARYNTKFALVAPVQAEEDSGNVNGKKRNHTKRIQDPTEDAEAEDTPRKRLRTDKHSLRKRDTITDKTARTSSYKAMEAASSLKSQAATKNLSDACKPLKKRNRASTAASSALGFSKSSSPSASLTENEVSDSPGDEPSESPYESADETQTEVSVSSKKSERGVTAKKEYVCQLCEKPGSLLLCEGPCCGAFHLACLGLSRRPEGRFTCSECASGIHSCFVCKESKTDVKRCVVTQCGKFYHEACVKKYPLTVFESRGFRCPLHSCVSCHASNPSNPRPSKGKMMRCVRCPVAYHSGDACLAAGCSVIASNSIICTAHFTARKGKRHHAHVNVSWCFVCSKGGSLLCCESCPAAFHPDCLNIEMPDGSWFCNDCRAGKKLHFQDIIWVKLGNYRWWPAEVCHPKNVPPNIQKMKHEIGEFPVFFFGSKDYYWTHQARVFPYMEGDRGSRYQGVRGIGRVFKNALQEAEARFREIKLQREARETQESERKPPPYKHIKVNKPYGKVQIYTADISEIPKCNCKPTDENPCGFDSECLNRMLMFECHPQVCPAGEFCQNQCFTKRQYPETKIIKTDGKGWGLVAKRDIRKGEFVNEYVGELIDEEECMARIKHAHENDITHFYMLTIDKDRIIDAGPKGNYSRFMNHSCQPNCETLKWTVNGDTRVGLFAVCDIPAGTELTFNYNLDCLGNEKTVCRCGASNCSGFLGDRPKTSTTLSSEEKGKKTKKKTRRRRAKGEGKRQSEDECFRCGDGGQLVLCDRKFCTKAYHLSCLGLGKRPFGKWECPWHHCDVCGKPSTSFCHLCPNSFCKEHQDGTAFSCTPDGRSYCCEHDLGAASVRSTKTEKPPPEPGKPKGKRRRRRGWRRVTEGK

NCI-H1299 [11] = assay: Induction of molecular glue effect mediated DNMT1 degradation in human NCI-H1299 cells assessed as reduction in DNMT1 protein level at 100 nM preincubated with MLN4924 for 2 hrs followed by compound addition and measured after 24 hrs by Western blot analysis; type: cell-based
HCT-116 [12] = assay: Induction of molecular glue effect mediated DNMT1 degradation in human HCT-116 cells assessed as reduction in DNMT1 protein level by measuring half-life at 500 nM preincubated with cycloheximide for 2 hrs followed by compound administration and measured after 24 hrs by Western blot analysis; type: cell-based

**Q.** Which Activity (HCT-116 [1]) does the source give for `CCc1c(C#N)c(SC(C(N)=O)c2ccccc2)nc(N(C)CC(=O)NC)c1C#N` (configuration not stated) here?
**A.** Not active; Partial Rescue Of Degradation Observed

**Q.** And the “inhibition (INH)” value (MDA-MB-468 [2])?
**A.** <50%

**Q.** What about the Activity (MDA-MB-468 [3]) of the same molecule?
**A.** inactive

**Q.** And the DC50 [4]?
**A.** 86 nM

**Q.** What about the Activity (HCT-116 [5]) of the same molecule?
**A.** inactive

**Q.** And the Activity (HCT-116 [6])?
**A.** Not active; Partial Rescue Of Degradation Observed

**Q.** And the Activity (NCI-H1299 [7])?
**A.** inactive

**Q.** And the DC50 [8]?
**A.** 254 nM

**Q.** And the Activity (NCI-H1299 [9])?
**A.** inactive

**Q.** And the inhibition [10]?
**A.** < 20%

**Q.** And the Activity (NCI-H1299 [11])?
**A.** Active

**Q.** What about the T1/2 (HCT-116 [12]) of the same molecule?
**A.** < 4 h
